Consider 60 compounds from ChEMBL document CHEMBL1138331, “Potent antimalarial activity of 2-aminopyridinium salts, amidines, and guanidines” (J Med Chem, 2007).

What is called IC50 is the concentration that gives 50% inhibition. A higher IC50 goes with lower potency. A word on the pKa: it is the negative logarithm of the acid dissociation constant. A low value points to a stronger acid or weaker base.

The test system of one data set is Plasmodium falciparum. Kind of data set: microbe, parasite or virus in culture. The following applies: Nigerian, 48 h.

Description for Plasmodium falciparum: Antimalarial activity against Plasmodium falciparum Nigerian in human erythrocytes after 48 hrs
Description for physchem: Dissociation constant, pKa by potentiometric titration

With `CCCCCCCCCCCC[n+]1ccc(C)cc1N`, the IC50 with Plasmodium falciparum turned out to be 1550 nM.
`N=C(N)CCCCCCCCCCCCCCCCC(=N)N`: in “physchem”, the pKa amounted to 13.2. Besides, the midpoint of inhibition in the data set on Plasmodium falciparum, the IC50, lay at 100 nM.
For `N=c1ncc(-c2ccccc2)cn1CCCCCCCCCCCCn1cc(-c2ccccc2)cnc1=N` the same measures were 11.3 and 12.3 nM.
For `CN(C)C(=N)NCCCCCCCCCCCCNC(=N)N(C)C` the same measures were 14.1 and 1.6 nM.
For `CCN(CC)CCCCCCCCCCCCCCCCN(CC)CC`, half-maximal inhibition in the data set on Plasmodium falciparum (IC50) was put at 110 nM.
`Nc1cc(-c2ccccc2)cc[n+]1CCCc1ccc(CCC[n+]2ccc(-c3ccccc3)cc2N)cc1` came in with a pKa in the data set “physchem” of 12.6. In the data set with Plasmodium falciparum, this compound yielded a concentration for half-maximal inhibition (IC50) of 4.5 nM.
As to `CN1CCN=C1CCCCCCCCCCCCC1=NCCN1C`, the pKa in the data set “physchem” stood at 11. Further, the IC50 in the data set on Plasmodium falciparum was determined as 43 nM.
In the data set on Plasmodium falciparum, `C[N+]1(CCCCCCCCCCCCCCCC[N+]2(C)CCCC2CO)CCCC1CO` (stereo unspecified) displayed an IC50 of 1.5 nM.
In the case of `CCN(CC)CCCCCCCCCCCCN(CC)CC`, the 50% inhibitory concentration (IC50) in the data set with Plasmodium falciparum was determined as 540 nM.
In turn, `Cn1c(=N)n(CCCCCCCCCCCCn2c(=N)n(C)c3ccccc32)c2ccccc21` registered a pKa in the data set “physchem” of 11.9. In the data set on Plasmodium falciparum, the concentration for half-maximal inhibition (IC50) was determined as 65 nM.
For the compound `CC[N+](CC)(CC)CCOCCCCCCCCCCCCOCC[N+](CC)(CC)CC`, in the data set on Plasmodium falciparum, the IC50 worked out at 3.3 nM.
Still for that read-out and setting: the value for `Cc1cc[n+](CCCCCCCC[n+]2ccc(C)cc2N)c(N)c1` was 7.2 nM; that for `CC1(C)CN=C(CCCCCCCCCCCCC2=NCC(C)(C)N2)N1` was 1 nM.
Regarding `C(CCCCCCC1=NCCN1)CCCCCC1=NCCN1`, the pKa in “physchem” was 13. This compound displayed a 50% inhibitory concentration (IC50) in the data set on Plasmodium falciparum of 2 nM.
Take `N=C(CCCCCCCCCCCCC(=N)N1CCCCC1)N1CCCCC1`: in the data set “physchem”, the pKa is 12.6. The same compound yielded an IC50 in the data set with Plasmodium falciparum of 4.9 nM.
In turn, `CC(=N)NCCCCCCCCCCCCNC(C)=N` registered a pKa in “physchem” of 12.6. The IC50 in the data set with Plasmodium falciparum is 2 nM.
Regarding `Nc1cccc[n+]1CCCCCCCCCCCC[n+]1ccccc1N`, the pKa in the data set “physchem” was found to be 13.5. The compound further displayed an IC50 in the data set with Plasmodium falciparum of 2.3 nM.
As to `CC1(C)CN=C(NCCCCCCCCCCCCNC2=NCCCN2)NC1`, the IC50 with Plasmodium falciparum is 0.6 nM.
In the case of `C[N+]1(CCCCCCCCCCCCCCCC[N+]2(C)CCCC2COc2ccc(C(F)(F)F)cc2)CCCC1COc1ccc(C(F)(F)F)cc1` (stereo unspecified), the IC50 with Plasmodium falciparum amounted to 29 nM.
Same read-out and setting: next, `N=C(N)NCCCCCCCCCCCCNC(=N)N`: 0.35 nM.
Same read-out and setting: the value for `CC1CN=C(CCCCCCCCCCCCC2=NCC(C)N2)N1` (stereo unspecified) was 1 nM.
Turning to `c1ccc2[nH]c(CCCCCCCCCCCCc3nc4ccccc4[nH]3)nc2c1`, in “physchem”, the pKa was 9. The compound further showed an IC50 in the data set with Plasmodium falciparum of 1800 nM.
As for `CN(C)C(=N)CCCCCCCCCCCCC(=N)N(C)C`, the pKa in “physchem” was determined as 12.8. The compound also registered an IC50 in the data set with Plasmodium falciparum of 6.3 nM.
For `N=c1sc(-c2cccc(Cl)c2)nn1CCCCCCCCCCCCn1nc(-c2cccc(Cl)c2)sc1=N` the same measures were 7.7 and 18500 nM.
On the same counts, the results for `Cc1ccc[n+](CCCCCCCCCCCC[n+]2cccc(C)c2N)c1N` are 13.3 and 1.8 nM.
Regarding `N=C(N)CCCCCCCCCCCCC(=N)N`, the pKa in the data set “physchem” turned out to be 13.6. Further, the half-maximal inhibitory concentration (IC50) in the data set with Plasmodium falciparum turned out to be 0.3 nM.
For `Nc1ccc(-c2ccccc2)c[n+]1CCCc1ccc(CCC[n+]2cc(-c3ccccc3)ccc2N)cc1` the same measures were 12.8 and 13 nM.
With `CN(C)/C(=N\C#N)NCCCCCCCCCCCCN/C(=N\C#N)N(C)C`, it took 8500 nM to reach half-maximal inhibition in the data set with Plasmodium falciparum (IC50).
Same read-out and setting: next, `c1cn(CCCCCCCCCCCCn2ccnc2)cn1`: 2000 nM.
As to `Nc1ccc(Cl)c[n+]1CCCCCCCCCCCC[n+]1cc(Cl)ccc1N`, the pKa in the data set “physchem” came out at 12.8. In addition, the IC50 with Plasmodium falciparum came to 1.4 nM.
In turn, `C(CCCCCCC1=NCCCN1)CCCCCC1=NCCCN1` came in with a pKa in the data set “physchem” of 13.1. Further, in the data set with Plasmodium falciparum, the IC50 was 2.3 nM.
In the data set on Plasmodium falciparum, `C(CCCCCCNC1=NCCCCC1)CCCCCNC1=NCCCCC1` had an IC50 of 2.2 nM.
In “physchem”, `N=c1c2ccccc2ccn1CCCCCCCCCCCCn1ccc2ccccc2c1=N` showed a pKa of 11.1. Moreover, inhibition in the data set with Plasmodium falciparum was half-maximal at 260 nM (IC50).
On the same counts, the results for `C(CCCCCCNC1=NCCN1)CCCCCNC1=NCCN1` are 13.5 and 1.7 nM.
On the same counts, the results for `Cc1ccc(-c2nn(CCCCCCCCCCCCn3nc(-c4ccc(C)cc4)sc3=N)c(=N)s2)cc1` are 8.1 and 5600 nM.
`N=c1ncccn1CCCCCCCCCCCCn1cccnc1=N`: in “physchem”, the pKa came out at 11.7. In addition, the midpoint of inhibition in the data set on Plasmodium falciparum, the IC50, lay at 145 nM.
In the case of `N=C1CCCN1CCCCCCCCCCCCN1CCCC1=N`, the midpoint of inhibition in the data set on Plasmodium falciparum, the IC50, lay at 4 nM.
In the case of `Cc1cc[n+](CCCc2ccc(CCC[n+]3ccc(C)cc3N)cc2)c(N)c1`, in the data set “physchem”, the pKa stood at 12.6. For the same compound, in the data set with Plasmodium falciparum, the IC50 was 2.9 nM.
In turn, `FC(F)(F)c1ccc(OCC2CCCN2CCCCCCCCCCCCCCCCN2CCCC2COc2ccc(C(F)(F)F)cc2)cc1` (stereo unspecified) had an IC50 in the data set on Plasmodium falciparum of 5400 nM.
In the data set “physchem”, `N=c1sc(-c2cccs2)nn1CCCCCCCCCCCCn1nc(-c2cccs2)sc1=N` came in with a pKa of 7.8. For the same compound, the IC50 in the data set with Plasmodium falciparum was found to be 8150 nM.
Take `C(CCCCCCNC1=NCCCN1)CCCCCNC1=NCCCN1`: the IC50 in the data set on Plasmodium falciparum came to 0.5 nM.
In turn, `Cc1ccc(N)[n+](CCCCCCCCCCCC[n+]2cc(C)ccc2N)c1` had a pKa in the data set “physchem” of 13. For the same compound, the IC50 with Plasmodium falciparum stood at 0.5 nM.
For `N=c1sccn1CCCCCCCCCCCCn1ccsc1=N` the same measures were 10.1 and 800 nM.
On the same counts, the results for `Cc1cc[n+](CCCCCCCCCCCCCCCC[n+]2ccc(C)cc2N)c(N)c1` are 13.6 and 3.8 nM.
For the compound `C(CCCCCCCCN1CCCC1)CCCCCCCN1CCCC1`, in the data set with Plasmodium falciparum, it took 110 nM to reach half-maximal inhibition (IC50).
Regarding `N=c1sc(-c2ccccc2)nn1CCCCCCCCCCCCn1nc(-c2ccccc2)sc1=N`, the pKa in the data set “physchem” stood at 8. For the same compound, the IC50 in the data set with Plasmodium falciparum stood at 760 nM.
On the same counts, the results for `N=c1n(CCCCCCCCCCCCn2c(=N)n(Cc3ccccc3)c3ccccc32)c2ccccc2n1Cc1ccccc1` are 9.4 and 450 nM.
The compound `C(CCCCCCC1=NC2CCCCC2N1)CCCCCC1=NC2CCCCC2N1` (stereo unspecified) displayed an IC50 with Plasmodium falciparum of 3 nM.
For the compound `CCOC(=N)CCCCCCCCCCCCC(=N)OCC`, the pKa in the data set “physchem” is 7.6. In the data set on Plasmodium falciparum, this compound registered an IC50 of 52000 nM.
As for `Cc1cc[n+](CCCCCCCCCCCC[n+]2ccc(C)cc2N)c(N)c1`, the pKa in “physchem” worked out at 13.5. In addition, the midpoint of inhibition with Plasmodium falciparum, the IC50, lay at 0.5 nM.
Consider `CCN(CC)CCOCCCCCCCCCCCCOCCN(CC)CC`, for which, in the data set with Plasmodium falciparum, the midpoint of inhibition, the IC50, lay at 120 nM.
On to `N=C(CCCCCCCCCCCCC(=N)N1CCCC1)N1CCCC1`, for which the pKa in “physchem” came out at 13.2. For the same compound, half-maximal inhibition with Plasmodium falciparum (IC50) was put at 0.8 nM.
For `C(CCCCCCNC1=NCCC1)CCCCCNC1=NCCC1` the same measures were 12.1 and 3.8 nM.
Regarding `C(CCCCCCN/C(=N\C1CCCCC1)NC1CCCCC1)CCCCCN/C(=N\C1CCCCC1)NC1CCCCC1`, inhibition with Plasmodium falciparum was half-maximal at 21 nM (IC50).
`N=c1cc2ccc3ccccc3c2nn1CCCCCCCCCCCCn1nc2c(ccc3ccccc32)cc1=N` registered a pKa in the data set “physchem” of 11.7. Moreover, the midpoint of inhibition in the data set with Plasmodium falciparum, the IC50, lay at 50 nM.
`OCC1CCCN1CCCCCCCCCCCCCCCCN1CCCC1CO` (stereo unspecified) yielded an IC50 in the data set with Plasmodium falciparum of 160 nM.
Compound `Cc1nccn1CCCCCCCCCCCCn1ccnc1C` came in with a half-maximal inhibitory concentration (IC50) with Plasmodium falciparum of 270 nM.
The compound `c1c[nH]c(CCCCCCCCCCCCc2ncc[nH]2)n1` showed a pKa in “physchem” of 9.8. For the same compound, the IC50 in the data set on Plasmodium falciparum is 1650 nM.
In “physchem”, `C(CCCCCCNC1=NCCCC1)CCCCCNC1=NCCCC1` yielded a pKa of 12.7. In addition, the concentration for half-maximal inhibition (IC50) in the data set with Plasmodium falciparum came out at 3 nM.
In the data set with Plasmodium falciparum, `N=c1sc2ccccc2n1CCCCCCCCCCCCn1c(=N)sc2ccccc21` came in with an IC50 of 4000 nM.
